# pEC50: −log10 of the molar value. Where no end group is shown, it is not given here. [ ]: non-standard residue; d: D form. sY = N[C@@H](Cc1ccc(OS(=O)(=O)O)cc1)C(=O)O
# Columns and labels:
# [1] = test system: BNGR-A9; assay: IP3 ELISA in BNGR-A9-expressing HEK293 cells; assay type: cell-based, Bombyx mori; conditions: 1 μM, 1 h
# Method: Figure 6 Bombyx sulfated-sulfakinin mediated activation of BNGR-A9 via Gαq signaling pathway. (A and B) Effects of Gαq inhibitor FR900359 (1 μM) on the CRE-driven luciferase activities in BNGR-A9 expressing HEK293 (A) and BmN (B) cells. BNGR-A9 stable transfected cells were pretreated with FR900359 (1 μM) for 30 min and challenged with 100 nM BmsSK for 4 h. (C) Accumulation of IP3 in HEK293 cells expressing BNGR-A9 in response to Bombyx neuropeptides was assessed. Cells were pre-treated with serum-free DMEM for 1 h, followed by stimulation with 1 μM of the indicated Bombyx neuropeptides for 1 h. The level of IP3 in the supernatant was then determined using the IP3 immunoassay detection kit. (D, E) Effects of Gαq/PLC inhibitors on Flag-BNGR-A9 mediated increase of intracellular Ca^2+ level. Flag-BNGR-A9 expressing HEK293 (D) and BmN (E) cells were pretreated with Gαq inhibitorFR900359 (1 μM), U73122 (5 μM) for 30 min, and incubated with Fura-2 AM for 30 min, followed by challenging with 100 nM BmsSK. (F, G) effects of protein kinase A (PKA) inhibitor KT5720 on BmsSK initiated Ca^2+ in Flag-BNGR-A9-expressing cells. […] After 30 min incubation with Fura-2 AM, the cells were treated with 100 nM BmsSK, and detected with a fluorescence spectrometer. […] Data were analyzed by using a Student’s t-test (*p < 0.05; **p < 0.01). […]
# [2] = Feeding behavior assay: food consumption; assay type: in vivo, Bombyx mori; conditions: injected daily, final concentration 10 nM, 5th instar larvae; days 2 and 4 post-injection vs control (HBM)
# Method: Double-stranded RNAs were synthesized using MEGAscript RNAi T7 Kit (Ambion, CA, USA) following the manufacturer’s instructions. Templates for in vitro transcription were generated by PCR using the primers containing the T7 polymerase promoter sequence at their 5′ ends, as listed in Table S1. For each 20-μl reaction, 1 μg PCR product was added as the template. Following transcription, the reaction mixture was purified by phenol/chloroform extraction and ethanol precipitation. The resulting dsRNA products were diluted with nuclease-free water to achieve the desired concentration (final volume of 2–5 μl).
# Synchronized larvae of the first day of 5th instar were chosen for feeding behavior assay. Silkworms were starved for 12 h to standardize the starting level. To knock down bngr-a9, 5 μg dsRNA/BNGR-A9 or dsRNA/EGFP was injected into the abdomen of the larvae at the indicated time using a 10 μl microsyringe. For silkworms, both treated and untreated with dsRNA, synthetic SK peptide (at a final concentration of 10 nM) was injected daily starting from the second day of the fifth instar. For each trial, twenty synchronized P50 larvae were used. After injection, the silkworm larvae were fed with enough mulberry leaves three times a day and maintained under standard conditions. Larval body weights and food consumption were measured every other day until pupation.
# [3] = test system: BNGR-A9; assay: Fura-2 AM-based Ca^2+ mobilization assay, BNGR-A9; assay type: cell-based, Bombyx mori
# Description: (§1) The entire coding region of BNGR-A9 (NM_001134272.1) was obtained by PCR and subsequently cloned into pEGFP-N1 and pCMV-Flag vectors using the primers listed in Table S1. The Flag-BNGR-A9 construct was generated for functional assays, including CRE-luciferase, calcium mobilization, and ERK phosphorylation assays, while BNGR-A9-EGFP was created for receptor visualization purposes. Additionally, for expression in the BmN cell system, the BNGR-A9 gene was inserted into the pIZT/V5-His vector. All constructs were validated by DNA sequencing.
# HEK293 cells were cultured with Dulbecco’s Modified Eagle’s Medium (Gibco, NY, USA) supplied with 10% Fetal bovine serum (Gibco, NY, USA) in a 37 °C humidified incubator containing 5% CO2. BmN cells were maintained in TC 100 insect medium (AppliChem, Darmstadt, Germany) supplied with 10% Fetal bovine serum in a 28 °C incubator. Both HEK293 and BmN cells were transfected with X-tremeGENE (Roche, Mannheim, Germany) according to the manufacturer’s instruction.
# To monitor the changes of intracellular calcium, Fura-2 AM (Dojindo, Kumamoto, Japan) was utilized as the calcium indicator, following the methodology outlined in a previous study. Briefly, HEK293 cells stably expressing Flag-BNGR-A9 were exposed to various concentrations of Bombyx mori neuropeptides and measured using a fluorescence spectrometer (Tecan Infinite 200 PRO). Calcium levels were determined by the ratio of fluorescence excitation at 340 nm to that at 380 nm. If necessary, cells were pre-treated with U73122, FR900359, or KT5720 for 30 min prior to the initiation of the experiment. For assays involving BmN cells expressing pIZT-BNGR-A9, the procedures were conducted at 28 °C, and HBSS was replaced with HBM (Hepes-Buffered Medium: 140 mM NaCl, 5 mM KCl, 1 mM MgCl2, 1.2 mM Na2HPO4, 5 mM NaHCO3, 10 mM glucose, and 20 mM HEPES–NaOH, CaCl2 (1 mM), pH 6.2).
# Data analysis was conducted using GraphPad Prism (San Diego, CA), with results presented as mean ± SEM. Statistical significance was assessed through Student’s t-test or two-way ANOVA with multiple comparisons, with p values below 0.05 denoted as significant (*p < 0.05, **p < 0.01, ***p < 0.001). Dose–response curves were generated via non-linear curve fitting. Adobe Photoshop was used to process images, ensuring uniform brightness and contrast settings across all conditions. All images and data provided represent findings from a minimum of three independent experiments.
# [4] = test system: BNGR-A9; assay: Receptor internalization assay, BNGR-A9-EGFP; assay type: cell-based, Bombyx mori; conditions: BNGR-A9-EGFP stably expressing HEK293 cells; 100 nM, 30 min; fluorescence microscopy
# Description: as §1
# BNGR-A9-EGFP stably expressing HEK293 cells were seeded onto coverslips and incubated overnight under normal growth conditions. Subsequently, the cells were starved with fresh serum-free DMEM for 1 h and treated with either 100 nM BmsSK or BmnsSK. After a 30-min incubation period, the cells were washed three times with ice-cold PBS and fixed with 3% paraformaldehyde for 10 min at room temperature. The images were taken by a fluorescence microscopy (Leica, Germany).
substance,measurement,setting,value
"BmsSK: Bombyx mori sulfated-sulfakinin, synthetic; sulfated version of GDDTFDD^8YGHLRF-NH2 (GDDTFDD[sY]GHLRF-NH2; N-terminus assumed; SMILES CC(C)C[C@H](NC(=O)[C@H](Cc1c[nH]cn1)NC(=O)CNC(=O)[C@H](Cc1ccc(OS(=O)(=O)O)cc1)NC(=O)[C@H](CC(=O)O)NC(=O)[C@H](CC(=O)O)NC(=O)[C@H](Cc1ccccc1)NC(=O)[C@@H](NC(=O)[C@H](CC(=O)O)NC(=O)[C@H](CC(=O)O)NC(=O)CN)[C@@H](C)O)C(=O)N[C@@H](CCCNC(=N)N)C(=O)N[C@@H](Cc1ccccc1)C(N)=O)",Intracellular IP3 level,[1],significant elevation
same,Food consumption,[2],notably declined
same,Ca^2+ response,"[3]; 1 μM peptide, Fura-2 AM, BNGR-A9-expressing HEK293 and BmN cells, three independent experiments",triggered responses in BNGR-A9-expressing cells
same,Ca^2+ response compared to BmnsSK,"[3]; BNGR-A9-expressing HEK293 and BmN cells, Fura-2 AM",significantly greater Ca^2+ response
same,pEC50,"[3]; BmN cells expressing BNGR-A9, Fura-2 AM, 28 °C, HBM pH 6.2, three independent experiments",7.29
same,pEC50,"[3]; HEK293 cells expressing BNGR-A9, Fura-2 AM, three independent experiments",7.54
same,Receptor internalization,[4],rapid and significant receptor redistribution within the cytoplasm
